Experimental data from article PMC11061832, “Antiviral Rotenoids and Isoflavones Isolated from Millettiaoblata ssp. teitensis” (Journal of Natural Products, 2024).
Entries after “also recorded” stand apart in the source; their conditions may differ.

Legend:
HEp-2 cells [1] = experiment: Microscopic recording of cytostatic activity in compound-treated HEp-2 cells; details: microscopy, PCP poor cell proliferation, ACS altered cell shape, PCS poor cell staining, concentration(s) at which seen in brackets
Experimental: (§1) The extracts and the isolated compounds were tested for antiviral activity against RSV by the viral plaque reduction assay in cultures of HEp-2 cells (Table 3, Supporting Information). A tetrazolium-based cytotoxicity assay on HEp-2 cells was also performed to exclude that the anti-RSV activity was a result of general cytotoxicity. The cytotoxicity assay was complemented by microscopy observation of the compound- and extract-treated cells to detect possible cytostatic activity, such as poor cell growth and/or altered cell shape that may affect antiviral activity. […] At this stage, it is difficult to assess whether the cytostatic activity of these specific compounds contributed to the protection of cells against virus infection, and accordingly the specificity of anti-RSV action of 9 and 13 requires further investigation. An attempt was made to address this issue by testing cytotoxic activities of the most promising compounds in human embryonic lung fibroblasts (HELFs), i.e., primary cells derived from lung interstitium.

RSV = RSV plaque reduction assay in HEp-2 cells; details: for SI (CC50/IC50): CC50 HEp-2 / anti-RSV IC50; for IC50: human respiratory syncytial virus, HEp-2, 72 h, read-out: anti-RSV activity IC50
Experimental: as §1
Human adenocarcinoma cells of uterine cervix (HeLa) were grown in Eagle’s minimum essential medium supplemented with 5% fetal calf serum and antibiotics. HELFs were grown in Eagle’s minimum essential medium supplemented with 5% fetal calf serum, L-glutamine, and antibiotics. […] The RSV stock was prepared and stored as described previously by Lundin et al.[50]
The RSV plaque reduction assay was performed as described previously[27],[51] with some modifications. […] Following 15 min of incubation at 37 °C in a humidified atmosphere comprising 5% CO2 (incubator), the cells were inoculated with 50–100 plaque-forming units of RSV A2. After incubation of the virus–compound mixture with cells for 2.5 h in the CO2 incubator, the inoculum was removed and 750 μL of 1% methylcellulose solution in DMEM-M comprising the same concentration of test compound/extract was added and left for a further 3 days in the CO2 incubator. The cells were stained with a 1% solution of crystal violet, and the viral plaques were counted under a microscope.

[2] = Tetrazolium-based cytotoxicity assay in HEp-2 cells; details: human
Experimental: as §1
(§2) HEp-2 cells were cultivated in Dulbecco’s modified Eagle’s medium (DMEM) supplemented with 8% fetal calf serum and 292 μg/mL of L-glutamine. Human adenocarcinoma cells of uterine cervix (HeLa) were grown in Eagle’s minimum essential medium supplemented with 5% fetal calf serum and antibiotics. HELFs were grown in Eagle’s minimum essential medium supplemented with 5% fetal calf serum, L-glutamine, and antibiotics. The A2 strain of RSV (ATCC VR-1540) was used. The RSV stock was prepared and stored as described previously by Lundin et al.[50] In some experiments, strain HGP of HRV-2 (ATCC, VR-482) was used.
(§3) The tetrazolium-based cytotoxicity assay using a CellTiter 96 Aqueous One solution reagent (Promega) was performed for the test extracts and isolated compounds in HEp-2, HELFs, and HeLa cells as described previously.[50]
(§4) Figure S130. Cell viability in presence of the crude extracts of leaves and root heart of Milletia oblata ssp teitensis. The HEp-2 cells were incubated for 3 days at 37 °C with specific concentration of test extract. After addition of the tetrazolium (MTS)-based reagent the absorbance was recorded at 490 nm. The results are expressed as a percentage of absorbance developed in extract treated cells relative to DMSO treated controls. […]

[3] = Tetrazolium-based cytotoxicity assay in human embryonic lung fibroblasts; details: human
Experimental: as §1, §2, §3

HEp-2 cells [4] = experiment: Tetrazolium-based cytotoxicity assay in HEp-2 cells; details: read-out: cytotoxicity CC50; HEp-2 cells, tetrazolium-based assay
Experimental: as §1, §2, §3, §4

[5] = test system: human embryonic lung fibroblasts (HELFs); experiment: Tetrazolium-based cytotoxicity assay in human embryonic lung fibroblasts; details: primary lung fibroblasts
Experimental: as §1, §2, §3

[6] = Tetrazolium-based cytotoxicity assay in HeLa cells; format: cell-based; details: human, 34 °C
Experimental: Figure S133. Anti-HRV-2 (IC50) of 3 of Milletia oblata ssp teitensis in HeLa cells. In the cell protection against HRV assay, the cells were incubated in the presence of specific concentrations of test compound for 3 h, then inoculated with HRV and incubated for further 3 days at 34°C. Two separate experiments were performed, and the cell protection against HRV-2 was calculated according to formula described in the Method section. In the cell viability assay, the cells were incubated with test compound for 3 days at 34°C. For further explanations see legend to Figure S130.
Table S1. Anti-RSV activity, cytotoxicity for HEp-2 cells, and selectivity indices (SI) of Milletia oblata extracts. For explanations see legend to Table 3.
Compound/extract Anti-RSV activity Cytotoxicity SI […]
Root wood extract 3.4 66 PCS (8 µg/mL) 19.4
(1 picture or pasted object on this page, not shown here)

HRV-2 = experiment: Anti-HRV-2 tetrazolium-based cell protection assay in HeLa cells; set-up: species or system human rhinovirus 2 (strain HGP)
[7] = HEp-2 cells, cytotoxicity CC50, HEp-2 cells, tetrazolium-based assay
[8] = human embryonic lung fibroblasts (HELFs), primary cells
[9] = cytotoxicity CC50, HEp-2 cells, tetrazolium-based assay

Row | SMILES | cytotoxicity: cytostatic activity (HEp-2 cells [1]) | SI (CC50/IC50) (RSV) | IC50 (RSV) | CC50 at 3 days [2, 7] | CC50 [2, 9] | further results
1 | COc1ccc2c(=O)c(-c3cc4c(cc3OC)OCO4)coc2c1 [Compound 15, aglycuneatin methyl ether] | PCS (20.0 μM) | 6.5 | 10 µM | 65 µM |  | CC50 [3, 8]: 47.1 µM
2 | COc1cc2c(cc1OC)[C@]1(O)C(=O)c3ccc4c(c3O[C@@H]1CO2)C=CC(C)(C)O4 [Compound 9, tephrosin] | cytostatic activity at concentrations close to their IC50 values; also recorded: PCS (0.8 and 4.0 μM) | 15.6 | 0.8 µM |  |  | CC50 at 3 days [2]: 12.5 µM
3 | COc1ccc2c(c1)O[C@@H]1COc3cc4c(cc3[C@]1(O)C2=O)OCO4 [Compound 6, oblarotenoid A] | PCS (20.0 μM) | 35.7 | 1.4 µM |  | > 26.5 µM | CC50 (HEp-2 cells [4]): 50 µM; CC50 [3]: 1.3 µM
4 | CC(C)=CCOc1ccc(-c2coc3c4c(cc(O)c3c2=O)OC(C)(C)C=C4)cc1 [Compound 14, 4′-prenyloxyderrone] | PCS (100.0 μM) | >10 | 10 µM |  |  | CC50 [3, 8]: > 100 µM; cytotoxicity (in words) [5]: low cytotoxicity
5 | COc1cc2c(cc1OC)C(=O)[C@@]1(O)c3cc4c(cc3OC[C@H]1O2)OCO4 [Compound 2, (6aR,12aR)-9,10-dimethoxy-2,3-methylenedioxy-12a-hydroxyrotenoid] |  | 1.0 | > 100 µM |  | > 100 µM | 
6 | COc1cc2c(cc1-c1coc3c4c(c(OC)cc3c1=O)OC(C)(C)C=C4)OCO2 [Compound 11, ichthynone] | PCS (20.0 μM) | 11.4 | 8 µM |  |  | CC50 [3, 8]: > 100 µM; cytotoxicity (in words) [5]: low cytotoxicity
7 | COc1ccc2c(c1)O[C@@H]1COc3c(cc(OC)c4c3OCO4)[C@@H]1C2=O [Compound 1, (6aS,12aS)-2,9-dimethoxy-3,4-methylenedioxyrotenoid] |  | 1.0 | > 100 µM |  | > 100 µM | 
8 | COc1cc2c(cc1OC)[C@@H]1C(=O)c3ccc4c(c3O[C@@H]1CO2)C=CC(C)(C)O4 [Compound 10, deguelin] | PCS (4.0 μM) |  | 0.4 µM |  | > 26.5 µM | CC50 (HEp-2 cells [4]): 26.5 µM; CC50 [3]: 0.3 µM
9 | COc1ccc2c(c1)O[C@@H]1COc3cc(OC)c(OC)cc3[C@]1(O)C2=O [Compound 8, 12a-hydroxymunduserone] | PCS (20.0 μM) | 28.0 | 1.5 µM |  | > 26.5 µM | CC50 (HEp-2 cells [4]): 42 µM; CC50 [3]: 4.8 µM
10 | COc1c(O[C@@H]2O[C@H](CO[C@H]3O[C@H](C)[C@@H](O)[C@H](O)[C@@H]3O)[C@@H](O[C@@H]3O[C@H](CO[C@H]4O[C@H](C)[C@@H](O)[C@H](O)[C@@H]4O)[C@@H](O)[C@H](O)[C@H]3O)[C@H](O)[C@H]2O)cc2c(=O)c(-c3ccc4c(c3)OCO4)coc2c1OC [Compound 4, isoplatycarpanetin-6-O-β-glucosyl-(7″→1‴′)-α-rhamnosyl-(4″→1‴)-β-glucosyl-(7‴→1‴′)-α-rhamnoside] |  | 1.0 | > 100 µM | > 100 µM |  | 
11 | COc1ccc2c(c1)O[C@@H]1COc3cc4c(cc3[C@@H]1C2=O)OCO4 [Compound 5, oblarotenoid C] |  | >1.9 | 53 µM |  | > 100 µM | 
12 | COc1ccc2c(=O)c3c(oc2c1)COc1cc2c(cc1-3)OCO2 [Compound 3, 9-methoxy-2,3-methylenedioxy-6a-2a-dehydrorotenoid] |  | 4.1 | 22 µM | 90 µM |  | CC50 at 3 days [6]: 48 µM; SI (HRV-2; CC50 HeLa / anti-HRV-2 IC50): 11.4; IC50 (HRV-2; Rhinovirus A, HRV2, 72 h, protection of HeLa cells against HRV-2 infection, 3 days, 34 °C): 4.2 µM; CC50 [3, 8]: > 100 µM; cytotoxicity (in words) [5]: low cytotoxicity
13 | COc1ccc2c(=O)c(-c3cc(OC)c4c(c3OC)OCO4)coc2c1 [Compound 12, 7,2′,5′-trimethoxy-3′,4′-methylenedioxyisoflavone] |  | 1.0 | > 100 µM | > 100 µM |  | 
14 | CC(C)=CCOc1ccc(-c2coc3c4c(ccc3c2=O)OC(C)(C)C=C4)cc1 [Compound 13, isoerythrin-A-4′-prenyl ether] | cytostatic activity at concentrations close to their IC50 values; also recorded: PCS (4.0, 20.0, and 100.0 μM) | >47.6 | 2.1 µM | > 100 µM |  | CC50 [3, 8]: 9 µM
15 | CC1(C)C=Cc2c(ccc3c(=O)c(-c4ccc5c(c4)OCO5)coc23)O1 [Compound 16, calopogonium isoflavone B] |  | 1.0 | > 100 µM | > 100 µM |  | 
16 | NC(=O)c1ncn([C@@H]2O[C@H](CO)[C@@H](O)[C@H]2O)n1 [ribavirin, reference compound] |  |  | 10.6 µM |  |  | CC50 at 3 days ([2]; cytotoxicity CC50): > 100 µM
17 | COc1cc2c(cc1-c1coc3cc(O)ccc3c1=O)OCO2 [Compound 17, maximaisoflavone G] |  | 1.0 | > 100 µM | > 100 µM |  | 
18 | CC1(C)C=Cc2c(ccc(C(=O)/C=C/c3ccc(O)cc3)c2O)O1 [Compound 19, isobavachromene] |  | <2.5 | > 0.8 µM | 2 µM |  | 
19 | COc1ccc2c(c1)O[C@@H]1COc3c(cc(OC)c4c3OCO4)[C@]1(O)C2=O [Compound 7, oblarotenoid D] |  | 3.8 | 1.8 µM |  | 6.7 µM | 
